What was measured:
[1] = test system: H69/P; assay: in vitro inhibition of growth of human lung cancer cell line H69/P (Table 1); format: cell-based
Text: (§1) Tables 1 to 4 at the end of the present description show in vitro test results obtained in various sets of experiments for the cytotoxic activity of several of the benzazole compounds concerned, including also for reference results for the compound CJM 126 and comparative results for compound DF129, when tested against a range of tumor cell lines which includes ovarian, lung and certain colon and renal cancer cells from the National Cancer Institute (USA) collection. As usual the results are expressed in terms of IS50 values (concentration or dosage required to reduce cell growth or proliferation by 50%) calculated from dose-effect curves plotted for cultures of the cells in question.
(§2) In carrying out the in vitro studies, the cytotoxicity assays may be carried out by a method corresponding substantially to the following example:
(§3) Cells were maintained in a continuous logarithmic culture in Dublecco's medium supplemented with 10% fetal calf serum and penicillin (100 IU/ml) and streptomycin ([…]). The cells were mildly trypsinized for passage and for use in assays. On day zero, 100 μl of trypsinized tumor cells (1×10^4 /ml) were plated in the wells of 96-well flat-bottom microtiter plates. The plates were incubated for 2 days at 37° C. and 5% CO2 in air to allow the cells to adhere and resume exponential growth prior to the addition of drugs.
(§4) On day two 50 μl of the highest drug concentration was added to the wells of column 12 and from there serially diluted 3-fold to column 1 by serial transfer of 50 μl using an 8-channel micropipette. The final volume of column 1 was adjusted to 100 μl. No additions were made to the wells of rows A and B, which served as controls. The plates were further incubated for 5 days at 37° C. and 5% CO2 in air. Each compound was tested in duplicate.
(§5) On day 7 the test was terminated by the addition of 100 μl saline containing 0.002% w/v propidium iodide (Sigma), 0.3% drawing ink (Staedtler "Marsmatic 745"--Trade Mark) and 0.5% Triton X-100. The plates were kept at 4° C. overnight before reading on an inverted microscope equipped with an automated scanning stage. Fluorescence intensity was measured in arbitrary units by a photomultiplier. An HP-87 computer controlled the movement of the stage and also collected and processed the data from the multiplier.
(§6) For each compound tested a dose-response curve was obtained and the IC50 value (the drug concentration at 50% inhibition of cell growth) was calculated.

[2] = test system: breast carcinoma BO; assay: in vivo antitumor test, human breast carcinoma BO xenotransplanted in nude mice; settings: BO
Procedure: (§7) In one typical set of experiments, four human breast carcinomas xenotransplanted into female Ncr: nu/nu (Taconic, Germantown, U.S.A.) or male Bom: NMRI-nu/nu mice (Bomholtgaard, Ry, Denmark) were used for the evaluation of antitumor activity. Mice weighing 20-25 g at the start of experiments were held under sterile conditions at 24-26° C., 50% relative humidity and 12 hours light-dark rhythm in laminar flow shelves. The animals received autoclaved food and bedding; the drinking water was filtered and acidified (pH4.0).
The following breast carcinoma cell lines were used: BO; MCF-7 (NCI, U.S.A.); MT-1 and MT-3. The tumors BO and MCF-7 are ER^+ models: the carcinomas MT-1 and MT-3 are ER^- ones. Tumors were transplanted subcutaneously (s.c.) as pieces (2×2 mm) into the left flank of 5-8 nude mice/experimental group. Drug treatment was initiated when the tumors reached a diameter of 4-5 mm. Compounds were solubized with Tween 80 (maximum 10% of final volume) and suspended in saline. Suspensions were preparted freshly for each drug administration and injected in a volume of 0.2 mL/20 g body weight employing a once-weekly schedule (x3). Tumor size was measured twice weekly with a caliper. Median tumor volume/group was related to the first treatment day and expressed as Relative Tumor Volume (RTV). For the estimation of toxicity, body weight was determined twice weekly and the mean percentage body weight change (BCC) was calculated. In one experiment blood was obtained from the retroorbital venous plexus of mice and blood cells were determined with a Coulter counter (Model T41). […]

[3] = test system: L23/P; assay: in vitro inhibition of growth of human lung cancer cell line L23/P (Table 1); format: cell-based
Text: as §1, §2, §3, §4, §5, §6

[4] = test system: CH1-cisR; assay: in vitro activity against human ovarian cell line CH1-cisR (Table 2); format: cell-based; settings: Homo sapiens, CH1cisR
Text: As usual the results are expressed in terms of IS50 values (concentration or dosage required to reduce cell growth or proliferation by 50%) calculated from dose-effect curves plotted for cultures of the cells in question.
as §2, §3, §4
The plates were kept at 4° C. overnight before reading on an inverted microscope equipped with an automated scanning stage. Fluorescence intensity was measured in arbitrary units by a photomultiplier. An HP-87 computer controlled the movement of the stage and also collected and processed the data from the multiplier.

[5] = test system: NCI-H226; assay: in vitro inhibition of growth of human lung cancer cell line NCI-H226 (Table 1); format: cell-based
Text: as §1
(§8) In carrying out the in vitro studies, the cytotoxicity assays may be carried out by a method corresponding substantially to the following example: […]
as §5, with “An HP-87 computer controlled the movement of the stage and also collected and processed the data from the multiplier.” left out

[6] = test system: SDBR3; assay: in vitro inhibitory activity against human breast tumour cell line SDBR3 (Table 4); format: cell-based; settings: initial seeding density 2.5 × 10^2 cells/well
Text: as §1, §8
as §5, with “An HP-87 computer controlled the movement of the stage and also collected and processed the data from the multiplier.” left out

[7] = test system: Prostatic PC3 MAZ; assay: in vitro inhibitory activity against human prostatic cell line PC3 MAZ (Table 3); format: cell-based
Text: as §1, §8
as §5, with “An HP-87 computer controlled the movement of the stage and also collected and processed the data from the multiplier.” left out

[8] = test system: OVCAR-4; assay: in vitro activity against human ovarian cell line OVCAR-4 (Table 2); format: cell-based
Text: as §1, §8
as §5, with “An HP-87 computer controlled the movement of the stage and also collected and processed the data from the multiplier.” left out

[9] = test system: OVCAR-3; assay: in vitro activity against human ovarian cell line OVCAR-3 (Table 2); format: cell-based
Text: as §1, §8
as §5, with “An HP-87 computer controlled the movement of the stage and also collected and processed the data from the multiplier.” left out

[10] = estimation of toxicity in tumor-bearing nude mice (body weight, blood cells, survival); format: in vivo, mouse
Procedure: as §7
The following breast carcinoma cell lines were used: BO; MCF-7 (NCI, U.S.A.); MT-1 and MT-3. The tumors BO and MCF-7 are ER^+ models: the carcinomas MT-1 and MT-3 are ER^- ones. Tumors were transplanted subcutaneously (s.c.) as pieces (2×2 mm) into the left flank of 5-8 nude mice/experimental group. Drug treatment was initiated when the tumors reached a diameter of 4-5 mm. Compounds were solubized with Tween 80 (maximum 10% of final volume) and suspended in saline. Suspensions were preparted freshly for each drug administration and injected in a volume of 0.2 mL/20 g body weight employing a once-weekly schedule (x3). Tumor size was measured twice weekly with a caliper. Median tumor volume/group was related to the first treatment day and expressed as Relative Tumor Volume (RTV). For the estimation of toxicity, body weight was determined twice weekly and the mean percentage body weight change (BCC) was calculated. In one experiment blood was obtained from the retroorbital venous plexus of mice and blood cells were determined with a Coulter counter (Model T41).

[11] = test system: Prostatic DU 145; assay: in vitro inhibitory activity against human prostatic cell line DU 145 (Table 3); format: cell-based
Text: as §1, §8
as §5, with “An HP-87 computer controlled the movement of the stage and also collected and processed the data from the multiplier.” left out

[12] = test system: xenotransplanted breast carcinomas; assay: in vivo activity in panel of xenotransplanted breast carcinomas; design: species or system human (xenotransplanted in nude mice); settings: words; DF203 panel of four, DF129 two carcinomas
Procedure: as §7
(§9) The following breast carcinoma cell lines were used: BO; MCF-7 (NCI, U.S.A.); MT-1 and MT-3. The tumors BO and MCF-7 are ER^+ models: the carcinomas MT-1 and MT-3 are ER^- ones. Tumors were transplanted subcutaneously (s.c.) as pieces (2×2 mm) into the left flank of 5-8 nude mice/experimental group. Drug treatment was initiated when the tumors reached a diameter of 4-5 mm. […] Tumor size was measured twice weekly with a caliper. Median tumor volume/group was related to the first treatment day and expressed as Relative Tumor Volume (RTV). For the estimation of toxicity, body weight was determined twice weekly and the mean percentage body weight change (BCC) was calculated. In one experiment blood was obtained from the retroorbital venous plexus of mice and blood cells were determined with a Coulter counter (Model T41).

[13] = test system: MT-1; assay: in vivo antitumor test, human breast carcinoma MT-1 xenotransplanted in nude mice; settings: MT-1, optimum dose 6.25 mg/Kg/inj i.p., qd 7, 14, 21
Procedure: as §7, §9

[14] = MCF-7, optimum dose 200 mg/Kg/inj i.p., qd 12, 19, 26
[15] = MCF-7, optimum dose 12.5 mg/Kg/inj i.p., qd 12, 19, 26

Nc1ccc(-c2nc3ccccc3s2)cc1I [DF129, 2-(4'-amino-3'-iodophenyl)benzothiazole]
IC50 [1]: > 10 µM
RTV, relative tumor volume (T/C %) ([2]; optimum dose 200 mg/Kg/inj i.p., qd 27, 34, 41 (Table 6), not marked significant): 97%
IC50 [3]: 0.1 µM
IC50 [4]: 83 µM
IC50 [5]: 0.3 µM
IC50 [6]: < 0.001 µM
IC50 [7]: 54 µM
IC50 [8]: 0.2 µM
IC50 [9]: 0.6 µM
BWC (body weight change) ([10]; BO, optimum dose 200 mg/Kg/inj i.p., qd 27, 34, 41 (Table 6)): -14%
BWC (body weight change) [10, 14]: -14%
Platelets (% of controls) [10, 14]: 106 % of controls
WBC, white blood cells (% of controls) [10, 14]: 112 % of controls
IC50 [11]: 52 µM
in vivo activity in xenotransplanted breast carcinomas [12]: only borderline activity in one of the models

Cc1cc(-c2nc3ccccc3s2)ccc1N [DF203, 2-(4'-amino-3'-methylphenyl)benzothiazole]
IC50 [1]: > 10 µM
evaluation ([2]; optimum dose 25 mg/Kg/inj i.p., qd 27, 34, 41): ++ (T/C = 21-35%)
RTV, relative tumor volume (T/C %) ([2]; optimum dose 25 mg/Kg/inj i.p., qd 27, 34, 41, marked * significant versus control): 35%
IC50 [3]: 10 µM
IC50 [4]: 42 µM
evaluation [13]: ++ (T/C = 21-35%)
RTV, relative tumor volume (T/C %) ([13]; marked * significant versus control): 34%
IC50 [5]: 0.3 µM
IC50 [7]: > 100 µM
IC50 [8]: < 1 µM
BWC (body weight change) ([10]; BO, optimum dose 25 mg/Kg/inj i.p., qd 27, 34, 41): -9%
BWC (body weight change) [10, 15]: -12%
Platelets (% of controls) [10, 15]: 108 % of controls
WBC, white blood cells (% of controls) [10, 15]: 100 % of controls
overall change in white blood cell or platelet counts ([10]; MCF-7 test, words): no overall change
BWC (body weight change) ([10]; MT-1, optimum dose 6.25 mg/Kg/inj i.p., qd 7, 14, 21): -3%
BWC (body weight change) ([10]; MT-3, optimum dose 12.5 mg/Kg/inj i.p., qd 7, 14, 21): -3%
bone marrow toxicity ([10]; mouse, in vivo): not dose-limiting
survivors ([10]; mouse, in vivo, 25 mg/kg): only one survivor
toxicity ([10]; mouse, in vivo, 25 mg/kg): toxic
IC50 [11]: > 100 µM
in vivo activity in xenotransplanted breast carcinomas [12]: consistent tumor growth inhibition in all four tumors

From patent US6034246A, “2-arylbenzazole compounds” (Cancer Research Campaign Technology Limited, priority 1995, dated 2000)
